Reference: BindingDB's records for doi:10.1007/s10822-022-00478-x (Roche Innovation Center Basel, F. Hoffmann-La Roche Ltd., 2022)
pIC50: −log10 of the molar value.

molecular target: cAMP and cAMP-inhibited cGMP 3',5'-cyclic phosphodiesterase 10A (Homo sapiens, UniProt Q9Y233); experiment: PDE10A assay
Outline: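 Human PDE10A (2 ng/well) preincubated 15 min RT with compound in HEPES pH 7.5, 10 mM MgCl2, BSA, then reacted 15 min with 50 nM [3H]cGMP/cGMP substrate. Stopped with Y-Si SPA beads; bound radioactivity counted, IC50 from four-parameter logistic, pIC50 = −log10(IC50).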

How did the pIC50 turn out when `Cn1ncc(C(=O)N2CCC2)c1C(=O)Nc1cc[nH]n1` [Roche-Dataset for PDE10A, Compound 1155] was run?
The pIC50 was 5.50.

How did the pIC50 turn out when `CCOC(=O)c1cnn(C)c1C(=O)Nc1ccn2nc(Br)nc2c1` [Roche-Dataset for PDE10A, Compound 936] was run?
The pIC50 was 5.46.

`CC(C)(O)CNC(=O)c1cc(OCCO)ccc1NC(=O)c1nc(C2CC2)cnc1Nc1cncnc1` [US8703768, 215] was tested. Which pIC50 did it give?
The pIC50 was 9.31.

How did the pIC50 turn out when `Cc1nn2ccc(CCc3nc(N4CCCC4)nn3C)nc2c1C` [US9617271, 53] was run?
Its pIC50 is 7.77.

`CCN(C)c1nc2cc(NC(=O)c3c(C(=O)N4CCOCC4)cnn3C)ccn2n1` [Roche-Dataset for PDE10A, Compound 493] was tested. Which pIC50 did it give?
Its pIC50 is 8.26.
